# Laboratory results: patent publication US20220324835A1 (Nurix Therapeutics, Inc., priority 2018, published 2022)
# Assays:
# [1] = molecular target: T1, Cbl-b (Homo sapiens, UniProt Q13191); assay: Cbl-b inhibition assay (Cbl-b activity assay, FRET, Biological Example 1; 100 mM NaCl, 60 nM Src kinase); type: biochemical; conditions: upper bound stated in text lists; read-out: IC50 values in the Cbl-b inhibition assay of Biological Example 1
# Method in brief: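 Inhibition is read as loss of FRET signal. The signal arises when Src-phosphorylated, N-terminal biotinylated Avi-Cbl-b (captured by streptavidin-terbium) binds UbcH5B carrying covalently linked Bodipy-Fluorescein-tagged ubiquitin.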
# [2] = molecular target: T1, Cbl-b; assay: Cbl-b activity assay (Cbl-b inhibition assay), TR-FRET of Cbl-b interaction with UbcH5B-Ub; type: biochemical; conditions: assay buffer with 100 mM NaCl, 60 nM Src kinase; read-out: Cbl-b activity IC50
# Method in brief: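 TR-FRET readout of Cbl-b binding to Bodipy-fluorescein N-terminally labeled Ub conjugated to UbcH5B C85K, measured with compound present. After compound incubation, 60 nM Src kinase with 1 mM ATP and 5 mM MgCl2 (final) was added for 1.5 h, then a further 1 h incubation; asterisked values used 50 mM NaCl buffer and 30 nM Src.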
# [3] = system: T-cell; assay: CD25 cell surface staining on T-cells co-stimulated with anti-CD3 and anti-CD28 antibody (Biological Example 2); type: cell-based, human; conditions: Homo sapiens, T-cell, fold change over baseline, primary human total T-cells, read-out: CD25 staining Anti-CD3/Anti-CD28 stimulation; for fold induction at 0.3 µM: 0.3 μM Cbl-b inhibitor; for fold induction at 1 µM: 1 μM Cbl-b inhibitor; for fold induction at 4 µM: 4 μM Cbl-b inhibitor
# Method in brief: (§1)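 No assay protocol given; T-cells stimulated with anti-CD3 alone or anti-CD3 plus anti-CD28, with or without Cbl-b inhibitor. Activation read as IL-2 secretion or CD25 surface staining, expressed as fold over baseline from uninhibited cells […].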
# [4] = system: T-cell; assay: IL-2 secretion from T-cells co-stimulated with anti-CD3 and anti-CD28 antibody (Biological Example 2); type: cell-based, human; conditions: Homo sapiens, T-cell, fold change over baseline, primary human total T-cells, read-out: IL-2 secretion Anti-CD3/Anti-CD28 stimulation; for fold induction at 0.3 µM: 0.3 μM Cbl-b inhibitor; for fold induction at 1 µM: 1 μM Cbl-b inhibitor; for fold induction at 4 µM: 4 μM Cbl-b inhibitor
# Method in brief: as §1
# [5] = system: T-cell; assay: IL-2 secretion from T-cells stimulated with anti-CD3 antibody alone (Biological Example 2); type: cell-based, human; conditions: T-cell, fold change over baseline, primary human total T-cells, read-out: IL-2 secretion Anti-CD3 stimulation; for fold induction at 1 µM: 1 μM Cbl-b inhibitor; for fold induction at 8 µM: 8 μM Cbl-b inhibitor
# [6] = system: T-cell; assay: CD25 cell surface staining on T-cells stimulated with anti-CD3 antibody alone (Biological Example 2); type: cell-based, human; conditions: T-cell, fold change over baseline, primary human total T-cells, read-out: CD25 staining Anti-CD3 stimulation; for fold induction at 1 µM: 1 μM Cbl-b inhibitor; for fold induction at 8 µM: 8 μM Cbl-b inhibitor
# T1 sequence (Q13191 36-427): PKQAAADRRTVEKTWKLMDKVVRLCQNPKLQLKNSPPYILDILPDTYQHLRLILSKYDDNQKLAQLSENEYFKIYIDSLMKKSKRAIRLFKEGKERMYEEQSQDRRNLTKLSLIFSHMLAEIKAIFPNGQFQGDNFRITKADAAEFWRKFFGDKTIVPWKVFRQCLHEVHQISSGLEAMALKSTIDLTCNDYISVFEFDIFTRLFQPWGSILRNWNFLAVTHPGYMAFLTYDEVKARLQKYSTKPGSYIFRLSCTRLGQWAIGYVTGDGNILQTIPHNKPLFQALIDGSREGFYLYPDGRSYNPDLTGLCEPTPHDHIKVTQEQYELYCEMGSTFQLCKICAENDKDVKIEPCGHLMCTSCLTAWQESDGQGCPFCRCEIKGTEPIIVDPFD
SMILES,IC50 [1] [nM],IC50 [2] [nM],fold induction at 0.3 µM [3],fold induction at 1 µM [3],fold induction at 4 µM [3],fold induction at 0.3 µM [4],fold induction at 1 µM [4],fold induction at 4 µM [4],fold induction at 1 µM [5],fold induction at 8 µM [5],fold induction at 1 µM [6],fold induction at 8 µM [6]
"Cn1cnnc1CC(c1cccc(N2Cc3c(cccc3C(F)(F)F)C2=O)c1)C(F)(F)F (centres unmarked) [Compound 289, 2-(3-(1,1,1-Trifluoro-3-(4-methyl-4H-1,2,4-triazol-3-yl)propan-2-yl)phenyl)-4-(trifluoromethyl)isoindolin-1-one]",≤ 500,301 to 1000,1.01 to 1.3,1.01 to 1.3,1.01 to 1.3,< 1,< 1,1.01 to 2.5,0.101 to 0.15,0.151 to 0.2,0.801 to 1,0.801 to 1
"C[C@H](Cc1nncn1C)c1cccc(NC(=O)c2ccnc3ccnn23)c1 [Compound 328, (R)-N-(3-(1-(4-Methyl-4H-1,2,4-triazol-3-yl)propan-2-yl)phenyl)pyrazolo[1,5-a]pyrimidine-7-carboxamide]",≤ 100,< 100,1.01 to 1.3,1.01 to 1.3,1.01 to 1.3,1.01 to 2.5,1.01 to 2.5,2.51 to 5,0.051 to 0.1,0.101 to 0.15,0.801 to 1,> 1
"Cc1cc(C(=O)Nc2cccc([C@H](C)Cc3nncn3C)c2)nc2ccnn12 [Compound 329, (R)-7-Methyl-N-(3-(1-(4-methyl-4H-1,2,4-triazol-3-yl)propan-2-yl)phenyl)pyrazolo[1,5-a]pyrimidine-5-carboxamide]",≤ 300,100 to 300,1.01 to 1.3,1.01 to 1.3,1.31 to 1.5,1.01 to 2.5,1.01 to 2.5,5 to 7.5,0.101 to 0.15,> 0.201,0.601 to 0.8,> 1
"Cc1cc(C(=O)Nc2cccc([C@H]3C[C@H]3c3nncn3C)c2)nc(C2CC2)n1 [Compound 333, 2-cyclopropyl-6-methyl-N-{3-[(1 S,2R)-2-(4-methyl-1,2,4-triazol-3-yl)cyclopropyl]phenyl}pyrimidine-4-carboxamide]",≤ 300,100 to 300,1.01 to 1.3,1.01 to 1.3,1.01 to 1.3,1.01 to 2.5,2.51 to 5,5 to 7.5,0.101 to 0.15,> 0.201,0.801 to 1,> 1
"Cc1cc(C(=O)Nc2cccc([C@H](C)Cc3nncs3)c2)nc(C2CC2)n1 [Compound 334, (R)-N-(3-(1-(1,3,4-thiadiazol-2-yl)propan-2-yl)phenyl)-2-cyclopropyl-6-methylpyrimidine-4-carboxamide]",≤ 300,100 to 300,1.01 to 1.3,1.01 to 1.3,1.01 to 1.3,1.01 to 2.5,2.51 to 5,5 to 7.5,0.101 to 0.15,> 0.201,0.601 to 0.8,0.801 to 1
"Cn1cnnc1CC1(c2cccc(NC(=O)c3ccnc(C(F)(F)F)n3)c2)COC1 [Compound 337, N-(3-(3-((4-methyl-4H-1,2,4-triazol-3-yl)methyl)oxetan-3-yl)phenyl)-2-(trifluoromethyl)pyrimidine-4-carboxamide]",≤ 300,100 to 300,1.01 to 1.3,1.01 to 1.3,1.01 to 1.3,1.01 to 2.5,2.51 to 5,2.51 to 5,0.051 to 0.1,0.151 to 0.2,0.601 to 0.8,> 1
"Cc1cc(C(=O)Nc2cccc(C3(Cc4nncn4C)COC3)c2)nc(C(F)(F)F)n1 [Compound 338, 6-methyl-N-(3-(3-((4-methyl-4H-1,2,4-triazol-3-yl)methyl)oxetan-3-yl)phenyl)-2-(trifluoromethyl)pyrimidine-4-carboxamide]",≤ 100,< 100,1.01 to 1.3,1.01 to 1.3,1.01 to 1.3,1.01 to 2.5,2.51 to 5,> 7.5,0.101 to 0.15,> 0.201,0.801 to 1,> 1
"Cc1cc(C(=O)Nc2cccc(C3(Cc4nncn4C)COC3)c2)nc(C2CC2)c1 [Compound 339, 6-cyclopropyl-4-methyl-N-(3-(3-((4-methyl-4H-1,2,4-triazol-3-yl)methyl)oxetan-3-yl)phenyl)picolinamide]",≤ 100,< 100,1.31 to 1.5,1.31 to 1.5,1.51 to 1.75,5 to 7.5,> 7.5,> 7.5,> 0.201,> 0.201,> 1,> 1
"Cc1cc(C(=O)Nc2cccc(C3(Cc4nncn4C)COC3)c2)nc(C2CCC2)n1 [Compound 340, 2-cyclobutyl-6-methyl-N-(3-(3-((4-methyl-4H-1,2,4-triazol-3-yl)methyl)oxetan-3-yl)phenyl)pyrimidine-4-carboxamide]",≤ 100,< 100,1.01 to 1.3,1.01 to 1.3,1.31 to 1.5,1.01 to 2.5,5 to 7.5,> 7.5,0.151 to 0.2,> 0.201,0.801 to 1,> 1
"Cn1cnnc1CC1(c2cccc(NC(=O)c3cc(C4CC4)nc(C(F)(F)F)n3)c2)COC1 [Compound 341, 6-cyclopropyl-N-(3-(3-((4-methyl-4H-1,2,4-triazol-3-yl)methyl)oxetan-3-yl)phenyl)-2-(trifluoromethyl)pyrimidine-4-carboxamide]",≤ 100,< 100,1.01 to 1.3,1.31 to 1.5,1.51 to 1.75,2.51 to 5,> 7.5,> 7.5,0.151 to 0.2,> 0.201,0.801 to 1,> 1
"COc1cc(C(=O)Nc2cccc(C3(Cc4nncn4C)COC3)c2)nc(C2CC2)n1 [Compound 342, 2-cyclopropyl-6-methoxy-N-(3-(3-((4-methyl-4H-1,2,4-triazol-3-yl)methyl)oxetan-3-yl)phenyl)pyrimidine-4-carboxamide]",≤ 100,< 100,1.01 to 1.3,1.31 to 1.5,–,5 to 7.5,> 7.5,–,0.151 to 0.2,–,> 1,–
